Like-named read-outs stand apart in the source and are kept apart here.
Tests used:
[1] = target: T1, CLK2 (Homo sapiens, UniProt P49760); assay: CLK2 kinase activity assay (Z-lyte, Ser/Thr 6 peptide); type: biochemical; settings: recombinant CLK2 kinase, ATP 60 μM; read-out: EC50
T1 construct: purchased Thermo Fisher (Life Technologies), Z'-LYTE Kinase Assay Kits
Experimental: All reactions were performed in duplicate.

[2] = tested on: BT-549; assay: CellTiter-Glo Viability Assay, breast cancer; type: cell-based; settings: Homo sapiens, 96 h; BT-549, breast cancer, four days; read-out: EC50
[3] = tested on: CAMA1; assay: CellTiter-Glo Viability Assay, breast cancer; type: cell-based; settings: Homo sapiens, CAMA-1, 96 h; CAMA1, breast cancer, four days; read-out: EC50
[4] = tested on: DU4475; assay: CellTiter-Glo Viability Assay, breast cancer; type: cell-based; settings: Homo sapiens, DU-4475, 96 h; DU4475, breast cancer, four days; read-out: EC50
[5] = tested on: HCC1599; assay: CellTiter-Glo Viability Assay, breast cancer; type: cell-based; settings: Homo sapiens, 96 h; HCC1599, breast cancer, four days; read-out: EC50
[6] = tested on: MCF7; assay: CellTiter-Glo Viability Assay, breast cancer; type: cell-based; settings: Homo sapiens, 96 h; MCF7, breast cancer, four days; read-out: EC50
[7] = tested on: MDA-MB-231-Luc; assay: CellTiter-Glo Viability Assay, breast cancer; type: cell-based; settings: Homo sapiens, 96 h; MDA-MB-231-Luc, breast cancer, four days; read-out: EC50
[8] = tested on: T47D; assay: CellTiter-Glo Viability Assay, breast cancer; type: cell-based; settings: Homo sapiens, 96 h, breast cancer, four days, read-out: EC50
[9] = tested on: ZR-75-1; assay: CellTiter-Glo Viability Assay, breast cancer; type: cell-based; settings: Homo sapiens, 96 h; ZR-75-1, breast cancer, four days; read-out: EC50
[10] = tested on: all 50 cell lines; assay: CellTiter-Glo Viability Assay, average across all cell lines; type: cell-based; settings: Homo sapiens; across all 50 cell lines; read-out: average EC50 for inhibition of cancer cell proliferation
Outline: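 Proliferation of a multi-tissue human cancer line panel is assessed over four days at 37° C and 5% CO2, seeding 300-3,000 cells/well. Viability is quantified by CellTiter-Glo luminescence, and EC50 values are calculated.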

[11] = tested on: colorectal cancer (6 cell lines); assay: CellTiter-Glo Viability Assay, colorectal cancer; type: cell-based; settings: Homo sapiens, inhibition of cancer cell proliferation
[12] = tested on: haematopoietic & lymphoid tumors (13 cell lines); assay: CellTiter-Glo Viability Assay, haematopoietic & lymphoid tumors; type: cell-based; settings: Homo sapiens, inhibition of cancer cell proliferation
[13] = tested on: liver cancer (3 cell lines); assay: CellTiter-Glo Viability Assay, liver cancer; type: cell-based; settings: Homo sapiens, inhibition of cancer cell proliferation
[14] = tested on: lung cancer (4 cell lines); assay: CellTiter-Glo Viability Assay, lung cancer; type: cell-based; settings: Homo sapiens, inhibition of cancer cell proliferation
[15] = tested on: ovarian cancer (4 cell lines); assay: CellTiter-Glo Viability Assay, ovarian cancer; type: cell-based; settings: Homo sapiens, inhibition of cancer cell proliferation
[16] = tested on: pancreatic cancer (8 cell lines); assay: CellTiter-Glo Viability Assay, pancreatic cancer; type: cell-based; settings: Homo sapiens, inhibition of cancer cell proliferation
[17] = tested on: prostate cancer (5 cell lines); assay: CellTiter-Glo Viability Assay, prostate cancer; type: cell-based; settings: Homo sapiens

T1 sequence (P49760 whole entry): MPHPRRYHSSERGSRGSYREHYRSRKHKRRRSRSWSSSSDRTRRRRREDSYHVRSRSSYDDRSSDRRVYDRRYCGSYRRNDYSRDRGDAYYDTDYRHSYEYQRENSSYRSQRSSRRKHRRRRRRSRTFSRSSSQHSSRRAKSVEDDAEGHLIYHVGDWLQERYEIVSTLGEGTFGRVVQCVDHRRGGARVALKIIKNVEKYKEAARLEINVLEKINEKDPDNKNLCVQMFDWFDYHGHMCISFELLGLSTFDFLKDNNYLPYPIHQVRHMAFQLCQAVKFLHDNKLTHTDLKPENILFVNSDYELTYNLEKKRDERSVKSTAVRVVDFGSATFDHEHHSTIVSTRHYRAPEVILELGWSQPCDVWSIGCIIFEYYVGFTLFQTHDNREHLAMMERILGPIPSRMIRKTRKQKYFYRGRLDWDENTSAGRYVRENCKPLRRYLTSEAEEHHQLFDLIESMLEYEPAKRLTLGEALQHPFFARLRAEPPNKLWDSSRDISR

Compound: CN1CCC2(CC1)CN(c1cc(C(=O)Nc3cc4cc(-c5cnn(C)c5CO)ccc4cn3)ccn1)C2 [Compound 76]
- EC50 [1]: 2.6 nM
- EC50 [2]: 1050 nM
- EC50 [3]: 640 nM
- EC50 [4]: 468 nM
- EC50 [5]: 673 nM
- EC50 [6]: 3.36 µM
- EC50 [7]: 798 nM
- EC50 [8]: 1220 nM
- EC50 [9]: 950 nM
- EC50 [10]: 922 nM
- EC50 ([11]; HCT-116, HCT116 cell line, read-out: Colorectal cancer, EC50 (μM) HCT116): 0.455 µM
- EC50 ([11]; HT-29, HT29 cell line, read-out: Colorectal cancer, EC50 (μM) HT29): 1.41 µM
- EC50 ([11]; SW-620, SW620 cell line, read-out: Colorectal cancer, EC50 (μM) SW620): 0.241 µM
- EC50 ([11]; DLD-1 cell line, read-out: Colorectal cancer, EC50 (μM) DLD-1): 1.53 µM
- EC50 ([11]; SW48 cell line, read-out: Colorectal cancer, EC50 (μM) SW48): 0.16 µM
- EC50 ([11]; SW480 cell line, read-out: Colorectal cancer, EC50 (μM) SW480): 0.384 µM
- EC50 ([12]; DND41, DND-41 cell line, read-out: Haematopoietic & Lymphoid tumors, EC50 (μM) DND-41): 0.547 µM
- EC50 ([12]; MV4-11, MV-4-11 cell line, read-out: Haematopoietic & Lymphoid tumors, EC50 (μM) MV-4-11): 0.123 µM
- EC50 ([12]; Rec1, REC-1 cell line, read-out: Haematopoietic & Lymphoid tumors, EC50 (μM) REC-1): 1.77 µM
- EC50 ([12]; SU-DHL-4, SUDHL4 cell line, read-out: Haematopoietic & Lymphoid tumors, EC50 (μM) SUDHL4): 0.533 µM
- EC50 ([12]; HL-60 cell line, read-out: Haematopoietic & Lymphoid tumors, EC50 (μM) HL-60): 1.63 µM
- EC50 ([12]; JM1 cell line, read-out: Haematopoietic & Lymphoid tumors, EC50 (μM) JM1): 0.167 µM
- EC50 ([12]; JURKAT, Clone E6-1 cell line, read-out: Haematopoietic & Lymphoid tumors, EC50 (μM) JURKAT, Clone E6-1): 1.33 µM
- EC50 ([12]; JeKo-1 cell line, read-out: Haematopoietic & Lymphoid tumors, EC50 (μM) JeKo-1): 0.142 µM
- EC50 ([12]; KASUMI-1 cell line, read-out: Haematopoietic & Lymphoid tumors, EC50 (μM) KASUMI-1): 0.547 µM
- EC50 ([12]; Loucy cell line, read-out: Haematopoietic & Lymphoid tumors, EC50 (μM) Loucy): 0.385 µM
- EC50 ([12]; MOLT-4 cell line, read-out: Haematopoietic & Lymphoid tumors, EC50 (μM) MOLT-4): 0.734 µM
- EC50 ([12]; TF-1 cell line, read-out: Haematopoietic & Lymphoid tumors, EC50 (μM) TF-1): 2.39 µM
- EC50 ([12]; TOLEDO cell line, read-out: Haematopoietic & Lymphoid tumors, EC50 (μM) TOLEDO): 0.373 µM
- EC50 ([13]; SNU-398, SNU398 cell line, read-out: Liver cancer, EC50 SNU398): 120 nM
- EC50 ([13]; HEPG2 cell line, read-out: Liver cancer, EC50 HEPG2): 654 nM
- EC50 ([13]; PLC/PRF/5 cell line, read-out: Liver cancer, EC50 PLC/PRF/5): 2550 nM
- EC50 ([14]; A-427, A427 cell line, read-out: Lung cancer, EC50 (μM) A427): 0.481 µM
- EC50 ([14]; HCC78, HCC-78 cell line, read-out: Lung cancer, EC50 (μM) HCC-78): 1.07 µM
- EC50 ([14]; NCI-H460 cell line, read-out: Lung cancer, EC50 (μM) NCI-H460): 2.05 µM
- EC50 ([14]; NCI-H522 cell line, read-out: Lung cancer, EC50 (μM) NCI-H522): 0.246 µM
- EC50 ([15]; PA-1, PA1 cell line, read-out: Ovarian cancer, EC50 (μM) PA1): 0.725 µM
- EC50 ([15]; TOV112D, TOV-112D cell line, read-out: Ovarian cancer, EC50 (μM) TOV-112D): 0.277 µM
- EC50 ([15]; OV-90 cell line, read-out: Ovarian cancer, EC50 (μM) OV-90): 1.07 µM
- EC50 ([15]; OVCAR-3 cell line, read-out: Ovarian cancer, EC50 (μM) OVCAR-3): 0.194 µM
- EC50 ([16]; BXPC-3, BxPC3 cell line, read-out: Pancreatic cancer, EC50 BxPC3): 2070 nM
- EC50 ([16]; CAPAN-1, Capan1 cell line, read-out: Pancreatic cancer, EC50 Capan1): 810 nM
- EC50 ([16]; Capan-2, Capan2 cell line, read-out: Pancreatic cancer, EC50 Capan2): 1190 nM
- EC50 ([16]; MIA PaCa-2 cell line, read-out: Pancreatic cancer, EC50 MIA PaCa-2): 219 nM
- EC50 ([16]; PANC 05.04 cell line, read-out: Pancreatic cancer, EC50 PANC 05.04): 1060 nM
- EC50 ([16]; PANC-1 cell line, read-out: Pancreatic cancer, EC50 PANC-1): 1660 nM
- EC50 ([16]; UPAFII cell line, read-out: Pancreatic cancer, EC50 UPAFII): 635 nM
- EC50 ([17]; DU-145, read-out: Prostate cancer EC50 Du-145): 941 nM
- EC50 ([17]; PC-3, PC3 cell line, inhibition of cancer cell proliferation, read-out: Prostate cancer EC50 PC3): 546 nM
- EC50 ([17]; 22Rv1 cell line, inhibition of cancer cell proliferation, read-out: Prostate cancer EC50 22Rv1): 397 nM
- EC50 ([17]; LNCap clone FGC cell line, inhibition of cancer cell proliferation, read-out: Prostate cancer EC50 LNCap clone FGC): 1380 nM
- EC50 ([17]; VCaP (Sigma) cell line, inhibition of cancer cell proliferation, read-out: Prostate cancer EC50 VCaP (Sigma)): 1700 nM

Source: patent US20220062240A1, “METHODS OF TREATING CANCER USING A CLK INHIBITOR” (BioSplice Therapeutics, Inc., priority 2018, published 2022)
